Reference: patent US9855239B2, “Methods for the treatment and prevention of age-related retinal dysfunction” (University of Washington, priority 2008, dated 2018)

What was measured:
[1] = A2E accumulation in eyes after long-term treatment; format: in vivo, mouse
Procedure: To evaluate the safety of long-term administration of 9-cis-R-Ac, A2E accumulation was measured (FIG. 6A), because retinals spontaneously condense to this compound (Mata, N. L., Weng, J. & Travis, G. H. Proceedings of the National Academy of Sciences of the United States of America 97, 7154-7159 (2000); Parish, C. A., Hashimoto, M., Nakanishi, K., Dillon, J. & Sparrow, J. Proceedings of the National Academy of Sciences of the United States of America 95, 14609-14613 (1998)).
All experimental procedures related to extraction, derivatization and separation of retinoids were carried out under dim red light provided by a Kodak No. 1 safelight filter (transmittance>560 nm) as described previously (Van Hooser, J. P., et al. Proceedings of the National Academy of Sciences of the United States of America 97, 8623-8628 (2000); Van Hooser, J. P., et al. J Biol Chem, 277, 19173-19182 (2002); Maeda, A., et al. J Biol Chem 280, 18822-18832 (2005); Van Hooser, J. P., Garwin, G. G. & Saari, J. C. Methods Enzymol 316, 565-575 (2000)). […] The combined extracts were dried under argon and retinoids were separated by normal phase HPLC (Beckman, Ultrasphere-Si, 5 μm, 4.6×250 mm) with 10% ethyl acetate and 90% hexane at a flow rate of 1.4 ml/min and detected at 325 nm by an HPI 100 HPLC with a diode array detector and HP Chemstation A.03.03 software. […]

[2] = mouse, in vivo
Procedure: Animals were evaluated weekly for activity and changes in coat and skin appearance.
For the long-term study (FIGS. 1B and 1C, Table 1), mice were obtained at 3 months of age and raised until 4 months of age before the experiments were initiated. Mice then were gavaged with 9-cis-R-Ac or vehicle solution once a month for different durations. Six groups of mice were studied (FIG. 1B). The first 3 groups (C0 C1 and C2, total n=35 for each group) were treated as controls and tested at 4, 10 and 14 months of age. The other 3 groups (N1, N2 and N3, n=35) were gavaged with 9-cis-R-Ac. Group N1 was gavaged for 6 months and tested at 10 months of age. Group N2 was gavaged with 9-cis-R-Ac for 10 months and tested at 14 months of age. Group N3, was gavaged with vehicle until 10 months of age and then received 9-cis-R-Ac monthly until testing at 14 months of age.

With `CC(=O)OC/C=C(C)/C=C/C=C(C)\C=C\C1=C(C)CCCC1(C)C` [9-cis-R-Ac, 9-cis-retinyl acetate] the “amounts of A2E in eyes” value ([1]; all experimental groups (C1, C2, N1, N2, N3), FIG. 6B) was “did not differ significantly among all groups with the exception of N3, where they were slightly lower”, the “A2E and iso-A2E levels in eyes” value ([1]; long-term treatment, treated vs control at 10 and 14 months of age) was “did not accumulate” and the “tolerability of long-term treatment” value [2] was “well tolerated”.
